Data from patent US8697694B2, “Substituted pyridine and pyrimidine derivatives and their use in treating viral infections” (priority 2008, dated 2014).

System: HCV replicon cells
Assay: Cell-based HCV replicon assay (replicon RNA level by real time PCR, Taqman)
Conditions: Hepatitis C virus, 72 h, HCV replicon cells, harvested day 3, replicon RNA by real time PCR; reported as range class; read-out: EC90 (μM) range
Method in brief: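 Readout: ΔCT between NS5B replicon RNA and GAPDH by real-time RT-PCR in lysates harvested on day 3, fitted sigmoidally; EC50 at ΔCT=1, EC90 at ΔCT=3.2. Compounds tested at ten 2-fold dilutions from 25 μM to 1 μM start, 10% FBS, 0.5% DMSO.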

SMILES | EC90 [µM]
Nc1nc(Cl)c(-c2ccc(C=O)s2)c(N[C@@H]2C[C@H](CO)[C@@H](O)[C@H]2O)n1 [Example 155] | > 5
Nc1nc(N[C@@H]2C[C@H](CO)[C@@H](O)[C@H]2O)c(-c2ccccn2)c(-c2ccccn2)n1 [Example 162] | > 5
CN(C)c1ccc2sc(-c3c(Cl)nc(N(C)C)nc3N[C@@H]3C[C@H](CO)[C@@H](O)[C@H]3O)nc2c1 [Example 204] | > 5
Nc1nc(Cl)c(-c2cc3c(F)cncc3o2)c(N[C@@H]2C[C@H](CO)[C@@H](O)[C@H]2O)n1 [Example 303] | 0.5 to 5
OC[C@H]1C[C@@H](Nc2nc(NCC(F)(F)F)nc(Cl)c2-c2nc3ccccc3s2)[C@H](O)[C@@H]1O [Example 124] | < 0.5
CC(=O)OCCNc1nc(C)c(-c2nc3ccccc3s2)c(N[C@@H]2C[C@H](CO)[C@@H](O)[C@H]2O)n1 [Example 211] | < 0.5
Nc1nc(Cl)c(-c2nc3ccccc3s2)c(N[C@@H]2C[C@H](CO)[C@@H](O)[C@H]2O)n1 [Example 105] | < 0.5
Nc1nc(Cl)c(-c2ccccc2Oc2ccccc2)c(N[C@@H]2C[C@H](CO)[C@@H](O)[C@H]2O)n1 [Example 103] | > 5
CCOc1ccc2nc(-c3c(C)nc(N(C)C)nc3N[C@@H]3C[C@H](CO)[C@@H](O)[C@H]3O)sc2c1 [Example 207] | > 5
COc1cc2cc(-c3c(Cl)nc(N)nc3N[C@@H]3C[C@H](CO)[C@@H](O)[C@H]3O)oc2c(C)n1 [Example 14] | < 0.5

Same assay, conditions: Hepatitis C virus, 72 h, HCV replicon cells, harvested on day 3, replicon RNA by real time PCR; calculated EC90 reported as range class; read-out: EC90 (μM) range

SMILES | EC90 [µM]
CCCCCNc1nc(C)c(-c2cc3cc(CC)ncc3o2)c(N[C@@H]2C[C@H](CO)[C@@H](O)[C@H]2O)n1 [Example 514] | < 0.5
Cc1cccc(CNc2nc(C)c(-c3nc4ccccc4s3)c(N[C@@H]3C[C@H](CO)[C@@H](O)[C@H]3O)n2)c1 [Example 486] | < 0.5
Cc1nc(NCCNS(C)(=O)=O)nc(N[C@@H]2C[C@H](CO)[C@H]3OC(C)(C)O[C@H]32)c1-c1nc2ccccc2s1 [Example 257] | < 0.5
Cc1nc(NCc2cccs2)nc(N[C@@H]2CC[C@@H](O)[C@H]2O)c1-c1nc2ccccc2s1 [Example 336] | < 0.5
OC[C@H]1C[C@@H](Nc2nc(NCC(F)(F)F)nc(C3CC3)c2-c2nc3ccccc3s2)[C@H](O)[C@@H]1O [Example 128] | > 5
Cc1nc(NCc2ccco2)nc(N[C@@H]2C[C@H](CO)[C@@H](O)[C@H]2O)c1-c1nc2ccccc2s1 [Example 470] | < 0.5
CCOCCNc1nc(C)c(-c2cc3cc(CC)ncc3o2)c(N[C@@H]2C[C@H](CO)[C@@H](O)[C@H]2O)n1 [Example 515] | < 0.5
Cc1nc(NCc2ccc(F)cc2)nc(N[C@@H]2C[C@H](CO)[C@@H](O)[C@H]2O)c1-c1nc2ccccc2s1 [Example 238] | < 0.5
Cc1nc(N[C@@H](C)C(F)(F)F)nc(N[C@@H]2C[C@H](CO)[C@@H](O)[C@H]2O)c1-c1nc2ccccc2s1 [Example 132] | 0.5 to 5
CC(C)(C)Nc1nc(Cl)c(-c2nc3ccccc3s2)c(N[C@@H]2C[C@H](CO)[C@@H](O)[C@H]2O)n1 [Example 428] | < 0.5
OC[C@H]1C[C@@H](Nc2nc(NC3CCNCC3)nc(Cl)c2-c2nc3ccccc3s2)[C@H](O)[C@@H]1O [Example 510] | > 5
Cc1nc(NCC2CC2)nc(N[C@@H]2C[C@H](CO)[C@@H](O)[C@H]2O)c1-c1nc2cnccc2s1 [Example 523] | < 0.5
CCOCCNc1nc(C)c(-c2cc3cc(C(F)(F)F)ncc3o2)c(N[C@@H]2C[C@H](CO)[C@@H](O)[C@H]2O)n1 [Example 138] | < 0.5
CC(C)(C)CNc1nc(Cl)c(-c2nc3ccccc3s2)c(N[C@@H]2C[C@H](CO)[C@@H](O)[C@H]2O)n1 [Example 436] | < 0.5
Cc1nc(CNc2nc(C)c(-c3nc4ccccc4s3)c(N[C@@H]3C[C@H](CO)[C@@H](O)[C@H]3O)n2)cs1 [Example 495] | < 0.5
CCc1cc2cc(-c3c(Cl)nc(NCCOC)nc3N[C@@H]3C[C@H](CO)[C@@H](O)[C@H]3O)oc2cn1 [Example 501] | < 0.5
Cc1nc(NCc2cccs2)nc(N[C@@H]2CCCC2=O)c1-c1nc2ccccc2s1 (racemic) [Example 338] | < 0.5

Same assay, conditions: Hepatitis C virus, 72 h, HCV replicon cells, replicon RNA level by real time PCR (Taqman), day 3; calculated EC90; read-out: EC90 (μM) range

SMILES | EC90 [µM]
Cc1nc(NCCc2ccc(C(C)(C)C)cc2)nc(N[C@@H]2C[C@H](CO)[C@H]3OC(C)(C)O[C@H]32)c1-c1nc2cnccc2s1 [Example 2011] | > 5
Cc1ccc([C@H](Nc2nc(C)c(-c3nc4ccccc4s3)c(N[C@@H]3C[C@H](CO)[C@H]4OC(C)(C)O[C@H]43)n2)C(F)(F)F)cc1 [Example 2004] | 0.5 to 5
Cc1ccc(CNc2nc(C)c(-c3nc4ncccc4o3)c(N[C@@H]3C[C@H](CO)[C@@H](O)[C@H]3O)n2)cc1 [Example 2007] | < 0.5

Same assay, conditions: Hepatitis C virus, 72 h, HCV replicon cells, replicon RNA level by real time PCR (Taqman), harvested on day 3; calculated EC90 reported as range class; read-out: EC90 (μM) range

SMILES | EC90 [µM]
Cc1nc(NCC(F)(F)F)nc(N[C@@H]2C[C@H](CO)[C@@H](O)[C@@H]2O)c1-c1nc2ccccc2s1 [Example 1253] | 0.5 to 5
COc1cccc(Nc2nc(C)c(-c3nc4ccccc4s3)c(N[C@@H]3C[C@H](CO)[C@@H](O)[C@H]3O)n2)c1OC [Example 1129] | > 5
Cc1nc(NCc2ccco2)nc(N[C@@H]2C[C@H](CO)[C@@H](O)[C@H]2O)c1-c1nc2ccccc2s1 [Example 1110] | < 0.5
Cc1ccc([C@@H](C)Nc2nc(C)c(-c3nc4ccccc4s3)c(N[C@@H]3C[C@H](CO)[C@@H](O)[C@H]3O)n2)cc1 [Example 1234] | > 5
COc1ccc(Nc2nc(C)c(-c3nc4ccccc4s3)c(N[C@@H]3C[C@H](CO)[C@@H](O)[C@H]3O)n2)c(OC)c1 [Example 1235] | 0.5 to 5
COc1cccc2sc(-c3c(C)nc(N[C@H](C)c4ccc(C)cc4)nc3N[C@@H]3C[C@H](CO)[C@@H](O)[C@H]3O)nc12 [Example 1068] | 0.5 to 5
COc1cc(COc2nc(C)c(-c3nc4ccccc4s3)c(N[C@@H]3C[C@H](CO)[C@@H](O)[C@H]3O)n2)cc(OC)c1 [Example 1210] | > 5
Cc1ccc([C@@H](C)Nc2nc(C)c(-c3nc4cnccc4s3)c(N[C@@H]3C[C@H](CO)[C@@H](O)[C@H]3O)n2)cc1 [Example 544] | < 0.5
Cc1nc(N(C)Cc2ccccc2)nc(N[C@@H]2C[C@H](CO)[C@H]3OC(C)(C)O[C@H]32)c1-c1nc2ccccc2s1 [Example 1115] | > 5
COc1cc(OC)cc(C(C)Nc2nc(C)c(-c3nc4ccccc4s3)c(N[C@@H]3C[C@H](CO)[C@@H](O)[C@H]3O)n2)c1 (stereo partly drawn) [Example 1209] | 0.5 to 5
Cc1nc(NCC(F)(F)F)nc(N[C@@H]2C[C@H](CO)[C@@H](O)[C@H]2O)c1-c1nc2cnccc2s1 [Example 532] | < 0.5
Cc1nc(Nc2cccc(F)c2)nc(N[C@@H]2C[C@H](CO)[C@@H](O)[C@H]2O)c1-c1nc2cnccc2s1 [Example 1056] | < 0.5
Cc1ccc(Nc2nc(C)c(-c3nc4ccccc4s3)c(N[C@@H]3C[C@H](CO)[C@@H](O)[C@H]3O)n2)cc1 [Example 1045] | > 5
COc1cc(OC)cc(Oc2nc(C)c(-c3nc4ccccc4s3)c(N[C@@H]3C[C@H](CO)[C@@H](O)[C@H]3O)n2)c1 [Example 1211] | > 5

Same assay, conditions: Hepatitis C virus, 72 h, HCV replicon cells, replicon RNA level by real time PCR, harvested day 3; read-out: EC90 (μM) range

SMILES | EC90 [µM]
CCCc1nccc2sc(-c3c(C)nc(N[C@H](C)C4CC4)nc3N[C@@H]3C[C@H](CS(C)(=O)=O)[C@@H](O)[C@H]3O)nc12 [Example 1381] | < 0.5
Cc1nc(NCC(F)(F)F)nc(N[C@@H]2C[C@H](CN(C)S(C)(=O)=O)[C@@H](O)[C@H]2O)c1-c1nc2ccccc2s1 [Example 1379] | < 0.5
Cc1nc(N[C@H](C)C(F)(F)F)nc(N[C@@H]2C[C@H](CO)[C@@H](O)[C@H]2O)c1-c1nc2c(C)nccc2s1 [Example 1351] | < 0.5
Cc1nc(NCC(F)(F)F)nc(N[C@@H]2C[C@H](CO)[C@@H](O)[C@H]2O)c1-c1nc2ccccc2o1 [Example 1509] | < 0.5
Cc1nc(NCC2CC2)nc(N[C@@H]2C[C@H](CO)[C@@H](O)[C@H]2O)c1-c1cc2ccccc2s1 [Example 1603] | > 5
Cc1nc(N)nc(N[C@@H]2C[C@H](CO)[C@@H](O)[C@H]2O)c1-c1nc2c(C)nccc2s1 [Example 1534] | > 5
Cc1nc(NCC(F)(F)F)nc(N[C@@H]2C[C@H](CO)N(C(=O)OC(C)(C)C)C2)c1-c1nc2ccccc2s1 [Example 1348] | > 5
CCOc1nccc2sc(-c3c(C)nc(N[C@H](C)c4ccc(C)cc4)nc3N[C@@H]3C[C@H](CO)[C@@H](O)[C@H]3O)nc12 [Example 1343] | < 0.5
Cc1cccc([C@@H](C)Nc2nc(C)c(-c3nc4c(C)nccc4s3)c(N[C@@H]3C[C@H](CO)[C@@H](O)[C@H]3O)n2)c1 [Example 1525] | < 0.5
Cc1nc(NCC(F)(F)F)nc(N[C@@H]2C[C@H](C)[C@@H](O)[C@H]2O)c1-c1nc2cnccc2s1 [Example 1633] | < 0.5
Cc1nc(NCC(F)(F)F)nc(N[C@@H]2C[C@H](CNS(=O)(=O)CC(C)C)[C@@H](O)[C@H]2O)c1-c1nc2ccccc2s1 [Example 1512] | 0.5 to 5
Cc1nc(N[C@@H](c2cccs2)C(F)(F)F)nc(N[C@@H]2C[C@H](CO)[C@@H](O)[C@H]2O)c1-c1nc2ccccc2s1 [Example 1801] | < 0.5
Cc1nc(NCC(F)(F)F)nc(N[C@@H]2C[C@H](C(C)(C)O)[C@@H](O)[C@H]2O)c1-c1nc2ccccc2s1 [Example 1640] | 0.5 to 5
Cc1nc(NCC2CC2)nc(N)c1-c1nc2cnccc2s1 [Example 1510] | 0.5 to 5
Cc1nc(C(N)=O)nc(N[C@@H]2C[C@H](CO)[C@H]3OC(C)(C)O[C@H]32)c1-c1nc2ccccc2s1 [Example 1902] | > 5
CCc1nccc2sc(-c3c(C)nc(N[C@H](C)C4CC4)nc3N[C@@H]3C[C@H](CO)[C@@H](O)[C@H]3O)nc12 [Example 1505] | < 0.5
